BindingDB's records for patent US10435400 (Shanghai Haiyan Pharmaceutical Technology, 2019)

Target: Epidermal growth factor receptor (Homo sapiens, UniProt P00533)
Experiment: Wild Type EGFR and Mutant EGFR Kinase Inhibition Test
Method: After the compounds (i.e., test compounds) prepared by the above-mentioned examples described herein were added, the concentration of DMSO was 2%.The working concentration of each component in 10 μl EGFR WT kinase reaction system was: 10 μM ATP, 0.8 ng/μl EGFR WT kinase, 2 μM Tyr04 substrate.

Epidermal growth factor receptor, sequence (P00533 whole entry): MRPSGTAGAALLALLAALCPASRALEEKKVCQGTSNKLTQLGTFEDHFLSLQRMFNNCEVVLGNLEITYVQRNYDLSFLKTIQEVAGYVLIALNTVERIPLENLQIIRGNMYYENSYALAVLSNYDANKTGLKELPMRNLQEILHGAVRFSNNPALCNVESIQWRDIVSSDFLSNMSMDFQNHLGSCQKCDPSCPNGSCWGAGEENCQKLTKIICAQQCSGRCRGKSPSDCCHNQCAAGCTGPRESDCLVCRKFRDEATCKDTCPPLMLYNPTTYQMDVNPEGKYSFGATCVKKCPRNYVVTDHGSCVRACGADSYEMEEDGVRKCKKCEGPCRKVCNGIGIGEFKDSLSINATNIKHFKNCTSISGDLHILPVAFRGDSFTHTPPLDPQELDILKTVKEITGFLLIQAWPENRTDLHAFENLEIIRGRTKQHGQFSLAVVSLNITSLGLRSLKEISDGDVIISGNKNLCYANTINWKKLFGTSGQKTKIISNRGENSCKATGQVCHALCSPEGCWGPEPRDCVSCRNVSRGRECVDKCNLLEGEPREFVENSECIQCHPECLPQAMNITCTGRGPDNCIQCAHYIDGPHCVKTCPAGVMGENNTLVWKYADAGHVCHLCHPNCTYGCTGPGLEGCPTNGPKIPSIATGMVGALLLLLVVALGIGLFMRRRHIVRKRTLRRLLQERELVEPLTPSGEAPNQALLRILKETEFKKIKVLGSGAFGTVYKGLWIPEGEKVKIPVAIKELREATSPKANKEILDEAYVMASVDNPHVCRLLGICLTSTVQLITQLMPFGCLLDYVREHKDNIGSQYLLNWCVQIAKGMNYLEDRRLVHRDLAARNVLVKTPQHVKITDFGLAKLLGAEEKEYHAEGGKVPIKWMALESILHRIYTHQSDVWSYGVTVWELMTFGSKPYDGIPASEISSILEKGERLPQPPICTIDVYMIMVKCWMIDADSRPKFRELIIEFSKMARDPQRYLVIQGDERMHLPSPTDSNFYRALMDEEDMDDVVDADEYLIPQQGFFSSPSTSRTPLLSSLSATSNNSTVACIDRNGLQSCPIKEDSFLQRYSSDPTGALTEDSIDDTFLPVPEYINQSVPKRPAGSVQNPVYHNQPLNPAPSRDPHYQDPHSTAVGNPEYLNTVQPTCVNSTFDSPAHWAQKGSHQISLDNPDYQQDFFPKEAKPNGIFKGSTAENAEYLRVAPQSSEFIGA

**Q.** How did the IC50 turn out when C=CC(=O)Nc1cc(Nc2ncc(Cl)c(-c3cnc4c(ccn4C)c3)n2)c(OC)cc1N1CCC(N(C)C)CC1 [US10435400, Compound Z-2] was run?
**A.** 272 nM
